Assay: xn = mol fraction of the nth substance listed
Details: Fluid (supercritical or subcritical phases), x1 = 0.97; for mass density: Vibrating tube method; for speed of sound: 293.13 K, Frequency=5 MHz, Pulse-echo method

O=C=O [carbon dioxide] + CO
Details	mass density [kg/m3]
283.15 K, 19575 kPa	977.29
283.15 K, 19600 kPa	977.43
283.15 K, 19625 kPa	977.51
283.15 K, 19650 kPa	977.66
283.15 K, 19675 kPa	977.74
283.15 K, 19700 kPa	977.89
283.15 K, 19725 kPa	977.97
283.15 K, 19750 kPa	978.07
283.15 K, 19775 kPa	978.19
283.15 K, 19800 kPa	978.31
283.15 K, 19825 kPa	978.42
283.15 K, 19850 kPa	978.49
283.15 K, 19875 kPa	978.64
283.15 K, 19900 kPa	978.72
283.15 K, 19925 kPa	978.84
283.15 K, 19950 kPa	978.96
283.15 K, 19975 kPa	979.04
283.15 K, 20000 kPa	979.19
293.15 K, 6500 kPa	813.14
293.15 K, 6525 kPa	813.39
293.15 K, 6550 kPa	813.83
293.15 K, 6575 kPa	814.36
293.15 K, 6600 kPa	814.85
293.15 K, 6625 kPa	815.37
293.15 K, 6650 kPa	815.85
293.15 K, 6675 kPa	816.32
293.15 K, 6700 kPa	816.75
293.15 K, 6725 kPa	817.24
293.15 K, 6750 kPa	817.7
293.15 K, 6775 kPa	818.19
293.15 K, 6800 kPa	818.69
293.15 K, 6825 kPa	819.09
293.15 K, 6850 kPa	819.56
293.15 K, 6875 kPa	820.02
293.15 K, 6900 kPa	820.51
293.15 K, 6925 kPa	821
293.15 K, 6950 kPa	821.45
293.15 K, 6975 kPa	821.88
293.15 K, 7000 kPa	822.38
293.15 K, 7025 kPa	822.78
293.15 K, 7050 kPa	823.25
293.15 K, 7075 kPa	823.68
293.15 K, 7100 kPa	824.12
293.15 K, 7125 kPa	824.56
293.15 K, 7150 kPa	824.97
293.15 K, 7175 kPa	825.4
293.15 K, 7200 kPa	825.75
293.15 K, 7225 kPa	826.24
293.15 K, 7250 kPa	826.63
293.15 K, 7275 kPa	827.05
293.15 K, 7300 kPa	827.52
293.15 K, 7325 kPa	827.94
293.15 K, 7350 kPa	828.35
293.15 K, 7375 kPa	828.75
293.15 K, 7400 kPa	829.18
293.15 K, 7425 kPa	829.57
293.15 K, 7450 kPa	829.96
293.15 K, 7475 kPa	830.36
293.15 K, 7500 kPa	830.75
293.15 K, 7525 kPa	831.18
293.15 K, 7550 kPa	831.58
293.15 K, 7575 kPa	832.01
293.15 K, 7600 kPa	832.39
293.15 K, 7625 kPa	832.79
293.15 K, 7650 kPa	833.16
293.15 K, 7675 kPa	833.55
293.15 K, 7700 kPa	833.94
293.15 K, 7725 kPa	834.35
293.15 K, 7750 kPa	834.76
293.15 K, 7775 kPa	835.15
293.15 K, 7800 kPa	835.53
293.15 K, 7825 kPa	835.97
293.15 K, 7850 kPa	836.36
293.15 K, 7875 kPa	836.75
293.15 K, 7900 kPa	837.14
293.15 K, 7925 kPa	837.51
293.15 K, 7950 kPa	837.87
293.15 K, 7975 kPa	838.26
293.15 K, 8000 kPa	838.63
293.15 K, 8025 kPa	838.99
293.15 K, 8050 kPa	839.37
293.15 K, 8075 kPa	839.71
293.15 K, 8100 kPa	840.15
293.15 K, 8125 kPa	840.47
293.15 K, 8150 kPa	840.87
293.15 K, 8175 kPa	841.23
293.15 K, 8200 kPa	841.62
293.15 K, 8225 kPa	841.97
293.15 K, 8250 kPa	842.39
293.15 K, 8275 kPa	842.74
293.15 K, 8300 kPa	843.12
293.15 K, 8325 kPa	843.46
293.15 K, 8350 kPa	843.86
293.15 K, 8375 kPa	844.16
293.15 K, 8400 kPa	844.56
293.15 K, 8425 kPa	844.93
293.15 K, 8450 kPa	845.3
293.15 K, 8475 kPa	845.64
293.15 K, 8500 kPa	845.98
293.15 K, 8525 kPa	846.37
293.15 K, 8550 kPa	846.75
293.15 K, 8575 kPa	847.1

Details	speed of sound [m/s]
20010 kPa	624.7
24930 kPa	674.5
29990 kPa	718.7
34940 kPa	755.3
39990 kPa	791.4
44940 kPa	822.9
49970 kPa	852.5
54900 kPa	879.8
59940 kPa	906
64950 kPa	930.5
69950 kPa	953.8
74980 kPa	976
80020 kPa	997.6
90010 kPa	1037.3
100010 kPa	1074.3
109950 kPa	1108.7
120040 kPa	1141.7
140050 kPa	1201.9
160040 kPa	1256.5
178780 kPa	1303.9

Reference: the NIST ThermoML archive (doi:10.1016/j.jct.2016.03.026)
